What was measured:
VEGFA = VEGFA mRNA induction by 12-hour hypoxia in HEK293 cells (qRT-PCR); type: cell-based, human; details: hypoxia 12 hours
Experimental: In FIG. 3B, HEK293 cells were transiently transfected with SerRS^WT or SerRS^S101A/S241A constructs or empty control vector. 24 hours post-transfection, VEGFA mRNA induction by 12-hour-hypoxia treatment was monitored by qRT-PCR (means±SEM from four independent experiments; *P<0.05, **P<0.01, ***P<0.005). In FIG. 3C, HEK293 cells were transiently transfected with indicated constructs. 36 hours post-transfection, VEGFA mRNA induction by 12-hour-hypoxia treatment was monitored by qRT-PCR (means±SEM from four independent experiments; *P<0.0, **P<0.001, ***P<0.0001). The protein levels of SerRS, HIF-1α, and β-actin were examined by western blot (bottom).
Transient transfections were performed using Lipofectamine 2000 (ThermoFisher Scientific).
One gram of the total RNA from each sample was reversely transcribed to cDNA by M-MLV reverse transcriptase (Promega, Madison, Wis., USA). All real-time PCR reactions were performed using the StepOnePlus Real-Time PCR system (ThermoFisher Scientific) with SYBR Select Master Mix ThermoFisher Scientific). […] The PCR reaction program started at 95° C. for 10 min, followed by 45 cycles of 95° C. for 20 seconds and 60° C. for 1 min. Each experiment was carried out in triplicate. The VEGFA gene expression was normalized to that of β-ACTIN. Statistical analyses were performed with the software SigmaPlot (version 10.0). Student's t-test was used to analyze the changes between different groups.

3B11 endothelial cells = test: Matrigel plug angiogenesis assay with stably transfected 3B11 cells; type: in vivo; details: 3B11 cells stably transfected with mouse SerRS gene, C3H/HeJ mice, 14 days
Experimental: In FIG. 4A, mouse 3B11 endothelial cells were stably transfected with mouse wild type SerRS or mutant SerRS and the expression of SerRS were examined by immunoblot with anti-SerRS antibody and quantified by the density of the bands. In FIGS. 4B-C, Matrigel plug angiogenesis assay was performed with stably transfected 3B11 cells in C3H/HeJ mice. Matrigel plugs (dash lines enclosed regions) excised 14 days after implantation were analyzed by immunohistochemistry for CD31 (FIG. 4B) and microvessel density was quantified (FIG. 4C) (n=10-15).
A total of 10^6 of stably transfected 3B11 cells were resuspended in 100 μl of DMEM medium supplemented with 10% FBS and then mixed with 200 μl of ice-cold matrigel (BD Biosciences, San Jose, Calif., USA) liquid on ice. The 300 μl of cell and matrigel mixture was injected subcutaneously into a flank of C3H/HeJ mice (two injection sites per mouse and 5-6 mice in each group) (Jackson Laboratory). After inoculation for 14 days, the matrigel plugs were excised and frozen in Tissue-Tek® OCT compound for cryostat sectioning. All the mouse experiments were conducted according to the guidelines established by the Institutional Animal Care and Use Committee (IACUC) at The Scripps Research Institute, IACUC approval protocol number 13-0003.
5-μm sections from freshly frozen tumor xenograft and matrigel plugs were treated with acetone and 3% H2O2 to block endogenous peroxidase. After 3-5 times wash and goat serum block, the sections were incubated with an anti-CD31 antibody (1:3000; Cell Signaling Technology) overnight at 4° C. The blood vessels were counted in 5-10 random viable fields (120×) in tumor xenograft samples and microvessel density in matrigel plugs was quantified by measuring the CD31 staining density using Image J software. To detect the hypoxia, we incubated the slides with anti-HIF1α antibody (1:100; Novus Biologicals).
A matrigel plug angiogenesis assay was used. […] At the same time, the microvasculature in the plug was evaluated by CD31 immuno-staining.

ATM/ATR kinases = test: In vitro phosphorylation of recombinant SerRS by DNA-activated HEK293 nuclear extract (p-SQ immunoblot, 32P-labelling); type: biochemical, human; details: recombinant his6-tagged protein, p-SQ antibody and 32P-labelling
Experimental: FIGS. 1A-G show SerRS is important for hypoxia induced VEGFA expression and is phosphorylated by ATM and ATR kinases under hypoxia at serine 101 and serine 241 residues. In FIG. 1A, HEK293 cells were transfected with shRNAs targeting SerRS (sh-SerRS) or GlyRS (sh-GlyRS), or nonspecific control shRNA (sh-Control). 48 hours post-transfection, cells were cultured under hypoxia or normoxia conditions for 12 hours. Immunoblot of cell lysates with anti-SerRS, anti-GlyRS and anti-β-actin antibodies (left). VEGFA expression levels were measured by qRT-PCR (right) and relative induction of VEGFA transcription under hypoxia were plotted (right, inset) (means±SEM. from four independent experiments; *P<0.01, **P<0.0001). […] The conserved ATM/ATR substrate motif residues are underlined. In FIG. 1C, recombinant his6-tagged human SerRS or GlyRS were incubated with γ-^32P-ATP and HEK293 cell nuclear extracts which are treated with or without double-stranded DNA oligoes mimicking DNA damage stimuli to activate ATM/ATR/DNA-PK kinases. Recombinant proteins were then purified by Ni-NTA beads and subjected to SDS-PAGE and autoradiography. In FIG. 1D, recombinant his6-tagged two human aminoacyl tRNA synthetases (AARS): TyrRS and GlyRS, wild type SerRS, or SerRS mutants with single or double substitutions of serine 101 and serine 241 with alanine (S101A, S241A, and S101A/S241A) were treated as described in FIG. 1C and phosphorylated recombinant proteins were immunoblotted with antibodies as indicated after purification by Ni-NTA beads. In FIG. 1E, HEK293 cells were cultured under hypoxia for 3, 6, and 12 hours. Phosphorylated SerRS was immunoblotted with specific anti-p-SQ antibody after SerRS proteins were immunoprecipitated (IP). Cell lysates were immunoblotted with indicated antibodies for known ATM and ATR substrates (Chk1 and P53). In FIG. 1F, Flag-tagged wild type and mutant SerRS constructs were transfected into HEK293 cells. 24 hours post-transfection, cells were treated with hypoxia stress for 12 hours and ectopically expressed SerRS was then purified by immunoprecipitation (IP) using anti-Flag antibody and immunoblot (IB) with anti-P-SQ antibody and anti-Flag antibody. In FIG. 1G, HEK293 cells were transfected with siRNA against ATM (si-ATM) or ATR (si-ATR) and treated with hypoxia stress for 12 hours. Phosphorylated SerRS were immunoblotted as described in FIG. 1E. […]
For protein purification, human SerRS and its mutant genes were subeloned into pET-20b(+) plasmid (Novagen, Darmstadt, Germany) and overexpressed in E. coli. […] The purities of the recombinant proteins were assessed by Coomassie blue staining following 4-12% Mini Gel (ThermoFisher Scientific) electrophoresis. Protein concentrations were determined using Bradford protein assay (BioRad, Hercules, Calif., USA). […]

[1] = overexpression of SerRS construct, 24 hours post-transfection

Substance | VEGFA induction under hypoxia (VEGFA; SerRS construct expressed while HIF is knocked down by shRNA (shHIF)) | VEGFA induction under hypoxia (VEGFA; [1]) | microvessel formation in the matrigel plug (CD31) (3B11 endothelial cells) | level of phosphorylation in vitro (ATM/ATR kinases)
SerRS^S101A/S241A: phosphorylation-deficient human SerRS double mutant, serine 101 and 241 to alanine, SEQ ID NO: 4 (mouse version in matrigel assay) | completely inhibited VEGFA induction | significantly suppressed VEGFA induction | strongly suppressed the microvessel formation | almost had no phosphorylation
SerRS^WT: wildtype human seryl-tRNA synthetase protein, SEQ ID NO: 1 (mouse wild type used in the 3B11 matrigel assay) |  | had no effect | did not suppress microvascular formation | robust phosphorylation
SerRS^S101D/S241D: SerRS with double substitutions of S101 and S241 with aspartic acid, mimics the phosphorylated SerRS |  |  | did not suppress microvascular formation | 

Reference: US20190167771A1, “CONTROL ANGIOGENESIS BY REGULATING PHOSPHORYLATION OF SERYL-tRNA SYNTHETASE (SerRS)” (The Scripps Research Institute, priority 2016, published 2019)
